Laboratory results as given in article PMC11599936, “New-to-nature CO2-dependent acetyl-CoA assimilation enabled by an engineered B12-dependent acyl-CoA mutase” (Nature Communications, 2024).

What was measured:
Format in all cases: biochemical
AbfT = biological target: T1, AbfT (Clostridium aminobutyricum, UniProt Q9RM86); assay: LC-MS CoA-transfer assay; settings: 100 mM HEPES pH 7.5, 10 mM MgCl2, 30 °C
T1 construct: recombinant from E. coli BL21 (DE3), Ni-NTA purified
T1 sequence (Q9RM86 1-438): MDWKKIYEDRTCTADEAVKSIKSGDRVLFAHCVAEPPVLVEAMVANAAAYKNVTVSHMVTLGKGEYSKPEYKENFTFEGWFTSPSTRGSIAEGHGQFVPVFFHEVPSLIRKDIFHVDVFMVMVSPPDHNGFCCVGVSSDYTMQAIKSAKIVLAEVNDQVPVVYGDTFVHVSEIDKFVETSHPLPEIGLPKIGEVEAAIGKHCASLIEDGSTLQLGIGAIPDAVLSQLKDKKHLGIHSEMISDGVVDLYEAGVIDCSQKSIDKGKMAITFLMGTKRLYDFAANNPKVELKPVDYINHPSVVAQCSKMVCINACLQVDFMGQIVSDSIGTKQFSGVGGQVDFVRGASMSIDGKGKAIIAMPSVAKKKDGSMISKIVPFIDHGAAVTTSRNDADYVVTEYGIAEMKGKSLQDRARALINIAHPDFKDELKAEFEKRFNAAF

Pct = biological target: T2, Pct (Cupriavidus necator, UniProt Q0K874); assay: LC-MS CoA-transfer assay; settings: 100 mM HEPES pH 7.5, 10 mM MgCl2, 30 °C
T2 construct: recombinant from E. coli BL21 (DE3), Ni-NTA purified
T2 sequence (Q0K874 1-542): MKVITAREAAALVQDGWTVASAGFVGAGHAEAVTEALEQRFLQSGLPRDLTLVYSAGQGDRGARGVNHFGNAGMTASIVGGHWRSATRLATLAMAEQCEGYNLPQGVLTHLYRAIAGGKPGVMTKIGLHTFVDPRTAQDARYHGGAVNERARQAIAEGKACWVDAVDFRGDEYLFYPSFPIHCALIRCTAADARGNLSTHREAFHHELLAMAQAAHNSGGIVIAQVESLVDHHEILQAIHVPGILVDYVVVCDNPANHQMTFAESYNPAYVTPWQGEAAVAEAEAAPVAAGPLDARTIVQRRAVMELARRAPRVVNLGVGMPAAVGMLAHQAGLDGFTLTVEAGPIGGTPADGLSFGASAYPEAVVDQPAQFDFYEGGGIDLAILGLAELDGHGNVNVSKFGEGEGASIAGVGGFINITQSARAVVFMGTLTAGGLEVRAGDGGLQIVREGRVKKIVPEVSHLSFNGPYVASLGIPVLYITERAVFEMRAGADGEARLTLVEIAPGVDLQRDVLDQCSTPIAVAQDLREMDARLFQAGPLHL

[1] = biological target: T3, 2-hydroxyisobutyryl-CoA mutase from Aquincola tertiaricarbonis (Aquincola tertiaricarbonis, UniProt I3VE74+I3VE77); assay: coupled PhaJ/Etr1p assay, NADPH at […] nm; settings: 12.5 µM coenzyme B12, 50 mM NaPO4 pH 7, 30 °C
T3 construct: gene hcmA
T3 sequence (I3VE77 1-562): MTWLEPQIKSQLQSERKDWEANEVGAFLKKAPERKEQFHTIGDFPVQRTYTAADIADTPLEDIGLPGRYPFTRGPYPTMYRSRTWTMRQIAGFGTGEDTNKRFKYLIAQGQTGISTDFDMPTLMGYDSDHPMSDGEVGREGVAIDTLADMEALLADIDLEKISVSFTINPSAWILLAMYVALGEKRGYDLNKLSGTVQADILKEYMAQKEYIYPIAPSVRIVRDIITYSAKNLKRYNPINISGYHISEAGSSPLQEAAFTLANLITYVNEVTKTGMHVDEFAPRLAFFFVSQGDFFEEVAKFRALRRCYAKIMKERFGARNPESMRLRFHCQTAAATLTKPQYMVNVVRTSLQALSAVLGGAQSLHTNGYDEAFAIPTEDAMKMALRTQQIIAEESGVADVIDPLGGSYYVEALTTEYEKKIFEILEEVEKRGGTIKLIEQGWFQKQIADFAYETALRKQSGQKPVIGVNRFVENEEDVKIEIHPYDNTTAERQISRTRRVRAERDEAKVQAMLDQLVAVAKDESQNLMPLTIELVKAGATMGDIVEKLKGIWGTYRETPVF
T3 sequence (I3VE74 1-136): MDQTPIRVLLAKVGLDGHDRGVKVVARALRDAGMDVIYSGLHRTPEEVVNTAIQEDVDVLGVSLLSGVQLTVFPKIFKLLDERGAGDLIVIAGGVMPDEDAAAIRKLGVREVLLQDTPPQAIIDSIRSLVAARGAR

[2] = CoA donor acetyl-CoA 100 µM, 1 mM acid

SMILES: CC(=O)SCCNC(=O)CCNC(=O)[C@H](O)C(C)(C)COP(=O)(O)OP(=O)(O)OC[C@H]1O[C@@H](n2cnc3c(N)ncnc32)[C@H](O)[C@@H]1OP(=O)(O)O [acetyl-CoA]
- LC-MS CoA-transfer assay (AbfT; CoA acceptor 3-HP 1 mM): performed best with 3-HP as CoA-acceptor and acetyl-CoA as CoA-donor
- LC-MS CoA-transfer assay (Pct; CoA acceptor 3-HP 1 mM): performed best with 3-HP as CoA-acceptor and acetyl-CoA as CoA-donor

SMILES: O=C(O)CCO [3-hydroxypropionate]
- LC-MS CoA-transfer assay (AbfT; [2]): performed best with 3-HP as CoA-acceptor and acetyl-CoA as CoA-donor
- LC-MS CoA-transfer assay (Pct; [2]): performed best with 3-HP as CoA-acceptor and acetyl-CoA as CoA-donor

SMILES: CC(C)(O)C(=O)SCCNC(=O)CCNC(=O)[C@H](O)C(C)(C)COP(=O)(O)OP(=O)(O)OC[C@H]1O[C@@H](n2cnc3c(N)ncnc32)[C@H](O)[C@@H]1OP(=O)(O)O [2-hydroxyisobutyryl-CoA]
- coupled PhaJ/Etr1p assay, NADPH at 340 nm [1]: we confirmed functionality of this purified enzyme with its native substrate 2-hydroxyisobutyryl-CoA
